# Marks after values point to notes of the source that are not given here.
# What was measured:
# patients = settings: randomized phase III, cited from earlier work
# [1] = In vivo pharmacokinetic studies in mice (plasma and liver, LC/MS-MS); settings: for AUC fold change vs. WT: 95% confidence interval; for AUC(0-t) / Cmax: female, FVB, mouse, plasma, po; for liver levels, wild-type vs Oatp1a/1b^(−/−) mice / liver concentrations in OATP1B1^(tg) or OATP1B3^(tg) mice: single oral dose, letrozole 10 mg/kg or exemestane 20 mg/kg; for liver concentrations in OATP1B1^(tg) or OATP1B3^(tg) mice: relative to Oatp1a/1b^(−/−) and wild-type
# Method: The analysis was conducted using a Vanquish UHPLC aligned with a Quantiva triple-stage quadrupole mass spectrometer (Thermo Fisher Scientific). An ACQUITY UPLC BEH C18 Column (130 Å, 1.7 μm, 2.1 mm × 50 mm, Waters Co.) protected by ACQUITY UPLC BEH Shield RP18 VanGuard Pre-column (130 Å, 1.7 μm, 2.1 mm × 5 mm, Waters Co.) was used for analyte separation. The injection volume of the sample was 10 μL. The temperature of the column was kept at 40°C, whereas the autosampler rack was kept at 4°C. The mobile phase consisted of solvent A, which was a solution of 0.1% acetic acid in LC/MS-grade water, and solvent B, which was a solution of 0.1% formic acid in acetonitrile. The total run time was 4.5 minutes. The following were the gradient conditions: 0.3 mL/minutes was the flow rate for the following intervals: 0 to 0.5 minutes, 30% B; 0.5 to 3.0 minutes, 30% to 95% B; 3.0 to 4.0 minutes, 95% B; and 4.001 to 4.5 minutes, 95% to 30% B. The vaporizer was adjusted to 360°C, and the ion transfer tube temperature was 340°C. The mass spectrometry assay was configured with a positive voltage of 3600 V delivered to the ESI capillary. The collision gas utilized was argon, with a pressure of 1.5 mTorr. The mass spectrometer was set up with the following optimized parameters: 1 arbitrary unit (Arb) for sweep gas, 5 Arb for auxiliary gas, and 25 Arb for sheath gas. […] The accuracy, expressed as a percent bias varied from −7.80% to 5.10%, whereas the inter-assay and intra-assay precisions ranged from 2.19% to 7.09% according to the results of assay validation tests. The lower limit of quantification was 0.4 ng/mL.
# Letrozole was quantified using an LC/MS-MS method described previously ([14]). A Vanquish UHPLC and Quantiva triple-stage quadrupole mass spectrometer (Thermo Fisher Scientific) were used in the analysis. Analytes were separated chromatographically using a C18 AQUASIL guard cartridge (2.1 mm × 10 mm, 3 μm; Thermo Fisher Scientific) and an Accucore aQ column (50 mm × 2.1 mm, 2.6 μm). The temperature of the column was set at 40°C, whereas the autosampler was kept at 4°C. The mobile phase consisted of solvent A, which was a solution of 0.1% acetic acid in LC/MS-grade water, and solvent B, which was a solution of 0.1% formic acid in acetonitrile. A gradient elution method was employed for 5.0 minutes, with a flow rate of 0.4 mL/minutes. […] Injections were performed using 3 μL of the extracted samples. The mass spectrometer parameters were optimized and configured as follows: 25 Arb for sheath gas, 5 Arb for auxiliary gas, and 1 Arb for sweep gas. The temperature of the ion transfer tube and vaporizer was adjusted to 340°C and 360°C, respectively. Argon was used as the collision gas at a pressure of 1.5 mTorr. […] The lower limit of quantification was 5 ng/mL.
# Female wild-type, Oatp1a/1b cluster-knockout mice [Oatp1a/1b^(−/−) mice] and Oatp1a/1b^(−/−) mice with transgenic hepatic expression of OATP1B1 [OATP1B1^(tg) mice] or OATP1B3 [OATP1B3^(tg) mice] were all on an FVB background (RRID: IMSR_T000141), and experimental groups were age- and weight-matched for each experiment. Female mice with a deficiency of all Cyp3a isoforms [Cyp3a^(−/−)] were similarly matched with FVB wild-type mice. All mice were bred in-house. Littermates of the same sex and genotype were housed in groups of maximally five animals in a temperature- and light-controlled environment (12-hour light/dark cycles) in cages lined with absorbent bedding. Mice were given free access to standard food and water.
# For in vivo pharmacokinetic studies, mice were randomized into experimental groups of equal size.
# Oatp1b2 = assay: CDCA-24G plasma biomarker of hepatic Oatp1b2 function in mice; type: in vivo; settings: single oral letrozole 10 mg/kg, 2 hours
# Method: A, The levels of CDCA-24G biomarker in plasma were measured via LC/MS-MS in wild-type and Cyp3a^(−/−) mice treated with a single oral administration of letrozole (10 mg/kg) or vehicle. […] Data are shown as mean ± SD. Two-sided, unpaired Student t tests were used to analyze the data and no multiple comparison adjustment was applied. **, P < 0.01 and ****, P < 0.0001 compared with the wild-type group; n = 9 to 10 per group.
# mice [2] = assay: Photobeam activity open field system (physical activity); type: in vivo
# Method: An open-field photobeam activity system was used to monitor the motor activity of mice over a period of 12 hours after administration of letrozole ([27], [28]). Spontaneous physical/locomotor activity was assessed using an activity monitoring system consisting of a two-dimensional (X and Y axes) square frame that emits a grid of infrared beams (IR Actimeter and Actitrack software, Panlab, Harvard Apparatus). Animals were placed in a transparent enclosure inside the frame, and movement within the enclosure (general locomotor activity) was recorded as interruptions in the beams. During acute studies, mice were dosed with letrozole (0.5 mg/kg) orally at 5:00 pm and were tested individually for 12 hours during the active/dark phase of the light cycle (6:00 pm–6:00 am). Physical activity of the mice was similarly monitored at baseline and at the end of 15 days of the chronic treatment.
# mice [3] = assay: Von Frey hair test (mechanical sensitivity); type: in vivo
# Method: Von Frey filaments were used as a mechanical sensitivity measurement following administration of letrozole in both chronic and acute treatments, using a strategy developed previously ([24]). After ensuring that the animal is acquainted with the environment, joint pain was directly evaluated by a hind limb withdrawal response to mechanical stimulation applied by the filaments. […] After a single dose, mechanical sensitivity was tested with the Von Frey filaments at 0, 1, 3, 6, and 24 hours after drug administration ([25], [26]). During the chronic treatment of letrozole (0.1 mg/kg/day for 15 days), mechanical sensitivity was measured at baseline, at the end of week 1, and the end of week 2. Analysts were blinded to the composition of the treatment groups.
# mice [4] = assay: Histopathology of knee joints after chronic letrozole; type: in vivo; settings: mice receiving multiple doses of letrozole (0.1 mg/kg/day, 15 days)
# Method: At the end of the chronic letrozole treatment, hind limbs of three randomly selected mice per group were collected, peeled for skin, and preserved in 10% neutral buffered formaline at room temperature for at least 48 hours until tissue processing. Tissues from the hind limbs were routinely processed for histopathology on a Leica Peloris 3 Tissue Processor (Leica Biosystems), embedded in paraffin, sectioned at an approximate thickness of 4 to 5 μm, and batch stained with hematoxylin and eosin on a Leica ST5020 autostainer using a routine and quality-controlled protocol. Slides were evaluated and representative photomicrographs were taken by a board-certified veterinary pathologist using a Nikon Eclipse Ci-L Upright Microscope (Nikon Instruments, Inc.) with attached 18 megapixel Olympus SC180 microscope-mounted digital camera and cellSens imaging software (Olympus Life Science).
# [5] = set-up: method as in earlier work; settings: patients receiving continuous dosing regimens, prescribing information; cited from earlier work
# [6] = OATP1B1^(tg) mice, chronic letrozole 0.1 mg/kg/day for 15 days, 12 hours
# [7] = OATP1B1^(tg) mice, single oral letrozole 0.5 mg/kg, 12 hours
# [8] = OATP1B3^(tg) mice, chronic letrozole 0.1 mg/kg/day for 15 days, 12 hours
# [9] = OATP1B3^(tg) mice, single oral letrozole 0.5 mg/kg, 12 hours
# [10] = Oatp1a/1b^(−/−) mice, chronic letrozole 0.1 mg/kg/day for 15 days, 12 hours
# [11] = Oatp1a/1b^(−/−) mice, single oral letrozole 0.5 mg/kg, 12 hours
# [12] = wild-type mice, chronic letrozole 0.1 mg/kg/day for 15 days, 12 hours
# [13] = wild-type mice, letrozole 0.5 mg/kg, 12 h, Table S4
# [14] = wild-type mice, single oral letrozole 0.5 mg/kg, 12 hours
# [15] = wild-type mice, single oral letrozole 0.5 mg/kg, 12 hours, listed as letrozole
# [16] = 2.5 mg daily for 5 years vs intermittent regimen
structure (smiles),measurement,setting,value
C=C1C[C@@H]2[C@H](CC[C@]3(C)C(=O)CC[C@@H]23)[C@@]2(C)C=CC(=O)C=C12 [Exemestane],"suppression of estrogen levels and reduction of breast cancer tissue proliferation, intermittent vs standard daily dosing",patients; 25 mg three times a week vs 25 mg daily,non-inferior
same,AUC fold change vs. WT,"[1]; OATP1B3^(tg) vs wild-type mice, exemestane 20 mg/kg oral",2.27 (1.49–3.44)
same,AUC fold change vs. WT,"[1]; Oatp1a/1b^(−/−) vs wild-type mice, exemestane 20 mg/kg oral",2.25 (1.60–3.18)
same,AUC(0-t),"[1]; 20 mg/kg, AUC0–6h, OATP1B3^(tg) female mice, exemestane 20 mg/kg oral, mean with SEM",294 ng·h/mL
same,AUC(0-t),"[1]; 20 mg/kg, AUC0–6h, Oatp1a/1b^(−/−) female mice, exemestane 20 mg/kg oral, mean with SEM",292 ng·h/mL
same,AUC(0-t),"[1]; 20 mg/kg, AUC0–6h, wild-type female mice, exemestane 20 mg/kg oral, mean with SEM",130 ng·h/mL
same,Cmax,"[1]; 20 mg/kg, OATP1B3^(tg) female mice, exemestane 20 mg/kg oral, mean with SEM",152 ng/mL
same,Cmax,"[1]; 20 mg/kg, Oatp1a/1b^(−/−) female mice, exemestane 20 mg/kg oral, mean with SEM",159 ng/mL
same,Cmax,"[1]; 20 mg/kg, wild-type female mice, exemestane 20 mg/kg oral, mean with SEM",94 ng/mL
same,"liver levels, wild-type vs Oatp1a/1b^(−/−) mice",[1],higher levels
same,liver concentrations in OATP1B1^(tg) or OATP1B3^(tg) mice,[1],partially restored
N#Cc1ccc(C(c2ccc(C#N)cc2)n2cncn2)cc1 [Letrozole],increase of CDCA-24G concentration in plasma vs vehicle control,Oatp1b2; Cyp3a^(−/−) mice,2.17 fold
same,increase of CDCA-24G concentration in plasma vs vehicle control,Oatp1b2; wild-type mice,1.62 fold
same,Activ. (global activity),mice [2]; [6],"28,800"
same,Dist. (total distance traveled),mice [2]; [6],380 m
same,Locom. (locomotion),mice [2]; [6],"25,909"
same,MF (%) (moving fast),mice [2]; [6],6.22%
same,MS (%) (moving slow),mice [2]; [6],11.58%
same,RT (%) (resting time % of total duration),mice [2]; [6],82.19%
same,Res.T. (resting time),mice [2]; [6],9.86 h
same,Stere. (stereotypes),mice [2]; [6],"2,892"
same,Activ. (global activity),mice [2]; [7],"31,678"
same,Dist. (total distance traveled),mice [2]; [7],377 m
same,Locom. (locomotion),mice [2]; [7],"28,964"
same,MF (%) (moving fast),mice [2]; [7],6.60%
same,MS (%) (moving slow),mice [2]; [7],11.08%
same,RT (%) (resting time % of total duration),mice [2]; [7],82.34%
same,Res.T. (resting time),mice [2]; [7],9.88 h
same,Stere. (stereotypes),mice [2]; [7],"2,713"
same,Activ. (global activity),mice [2]; [8],"29,841"
same,Dist. (total distance traveled),mice [2]; [8],373 m
same,Locom. (locomotion),mice [2]; [8],"27,036"
same,MF (%) (moving fast),mice [2]; [8],6.28%
same,MS (%) (moving slow),mice [2]; [8],12.01%
same,RT (%) (resting time % of total duration),mice [2]; [8],81.71%
same,Res.T. (resting time),mice [2]; [8],9.80 h
same,Stere. (stereotypes),mice [2]; [8],"2,804"
same,Activ. (global activity),mice [2]; [9],"27,095"
same,Dist. (total distance traveled),mice [2]; [9],340 m
same,Locom. (locomotion),mice [2]; [9],"24,448"
same,MF (%) (moving fast),mice [2]; [9],5.72%
same,MS (%) (moving slow),mice [2]; [9],11.06%
same,RT (%) (resting time % of total duration),mice [2]; [9],83.22%
same,Res.T. (resting time),mice [2]; [9],9.98 h
same,Stere. (stereotypes),mice [2]; [9],"2,647"
same,Activ. (global activity),mice [2]; [10],"26,637"
same,Dist. (total distance traveled),mice [2]; [10],316 m
same,Locom. (locomotion),mice [2]; [10],"24,065"
same,MF (%) (moving fast),mice [2]; [10],5.23%
same,MS (%) (moving slow),mice [2]; [10],11.23* %
same,RT (%) (resting time % of total duration),mice [2]; [10],83.55* %
same,Res.T. (resting time),mice [2]; [10],10.0* hours
same,Stere. (stereotypes),mice [2]; [10],"2,572"
same,Activ. (global activity),mice [2]; [11],"26,674"
same,Dist. (total distance traveled),mice [2]; [11],286 m
same,Locom. (locomotion),mice [2]; [11],"24,494"
same,MF (%) (moving fast),mice [2]; [11],4.64%
same,MS (%) (moving slow),mice [2]; [11],10.40%
same,RT (%) (resting time % of total duration),mice [2]; [11],84.96%
same,Res.T. (resting time),mice [2]; [11],10.2 h
same,Stere. (stereotypes),mice [2]; [11],"2,180*"
same,Activ. (global activity),mice [2]; [12],"30,580"
same,Dist. (total distance traveled),mice [2]; [12],383 m
same,Locom. (locomotion),mice [2]; [12],"27,528"
same,MF (%) (moving fast),mice [2]; [12],6.32%
same,MS (%) (moving slow),mice [2]; [12],13.30%
same,RT (%) (resting time % of total duration),mice [2]; [12],80.34%
same,Res.T. (resting time),mice [2]; [12],9.64 h
same,Stere. (stereotypes),mice [2]; [12],"3,052"
same,Dist. (total distance traveled),mice [2]; [13],512 m
same,Res.T. (resting time),mice [2]; [13],9.06 h
same,Activ. (global activity),mice [2]; [14],41163
same,Dist. (total distance traveled),mice [2]; [14],512 m
same,Locom. (locomotion),mice [2]; [14],37261
same,MF (%) (moving fast),mice [2]; [14],8.90%
same,MS (%) (moving slow),mice [2]; [14],15.53%
same,RT (%) (resting time % of total duration),mice [2]; [14],75.55%
same,Res.T. (resting time),mice [2]; [14],9.06 h
same,Stere. (stereotypes),mice [2]; [14],3902
same,Activ. (global activity),mice [2]; [15],"41,163"
same,Locom. (locomotion),mice [2]; [15],"37,261"
same,Stere. (stereotypes),mice [2]; [15],"3,902"
same,arthralgia-related changes in mechanical sensitivity,"mice [3]; Oatp1a/1b^(−/−) mice vs humanized transgenic and wild-type mice, letrozole 0.1 mg/kg daily for 15 days",worst arthralgia-related phenotypic changes in mechanical sensitivity
same,time of maximal mechanical sensitivity after drug administration,"mice [3]; wild-type mice, single dose of letrozole",6 h
same,mechanical allodynia (paw withdrawal threshold),"mice [3]; wild-type mice, single dose of letrozole 0.1-0.5 mg/kg","reversible, concentration- and time-dependent allodynia"
same,lesions in knee joints (histopathologic examination),mice [4],"synovial hyperplasia, synovitis, and patellar tendinitis"
same,accumulation in plasma,[5],does not substantially accumulate
same,"7-year disease-free survival, intermittent vs continuous",patients; [16],comparable
same,"incidence of arthralgia, intermittent vs continuous dosing",patients; [16],only slightly decreased
same,AUC fold change vs. WT,"[1]; Cyp3a^(−/−) vs wild-type mice, letrozole 10 mg/kg oral",1.59 (1.34–1.90)
same,AUC fold change vs. WT,"[1]; OATP1B1^(tg) vs wild-type mice, letrozole 10 mg/kg oral",1.29 (0.94–1.78)
same,AUC fold change vs. WT,"[1]; OATP1B3^(tg) vs wild-type mice, letrozole 10 mg/kg oral",1.27 (0.83–1.95)
same,AUC fold change vs. WT,"[1]; Oatp1a/1b^(−/−) vs wild-type mice, letrozole 10 mg/kg oral",1.3 (0.92–1.86)
same,AUC(0-t),"[1]; 10 mg/kg, AUC0–6h, OATP1B1^(tg) female mice, letrozole 10 mg/kg oral, mean with SEM",33000 ng·h/mL
same,AUC(0-t),"[1]; 10 mg/kg, AUC0–6h, OATP1B3^(tg) female mice, letrozole 10 mg/kg oral, mean with SEM",32400 ng·h/mL
same,AUC(0-t),"[1]; 10 mg/kg, AUC0–6h, Oatp1a/1b^(−/−) female mice, letrozole 10 mg/kg oral, mean with SEM",33300 ng·h/mL
same,AUC(0-t),"[1]; 10 mg/kg, AUC0–6h, wild-type female mice, letrozole 10 mg/kg oral, mean with SEM",25500 ng·h/mL
same,AUC(0-t),"[1]; 10 mg/kg, AUC0–24h, Cyp3a^(−/−) female mice, letrozole 10 mg/kg oral single dose, mean ± SEM",141000 ng·h/mL
same,AUC(0-t),"[1]; 10 mg/kg, AUC0–24h, wild-type female mice, letrozole 10 mg/kg oral single dose, mean ± SEM",88700 ng·h/mL
same,Cmax,"[1]; 10 mg/kg, Cyp3a^(−/−) female mice, letrozole 10 mg/kg oral single dose, mean ± SEM",6820 ng/mL
same,Cmax,"[1]; 10 mg/kg, OATP1B1^(tg) female mice, letrozole 10 mg/kg oral, mean with SEM",6550 ng/mL
same,Cmax,"[1]; 10 mg/kg, OATP1B3^(tg) female mice, letrozole 10 mg/kg oral, mean with SEM",6670 ng/mL
same,Cmax,"[1]; 10 mg/kg, Oatp1a/1b^(−/−) female mice, letrozole 10 mg/kg oral, mean with SEM",6750 ng/mL
same,Cmax,"[1]; 10 mg/kg, wild-type female mice, letrozole 10 mg/kg oral single dose, Table 1 study, mean ± SEM",5800 ng/mL
same,Cmax,"[1]; 10 mg/kg, wild-type female mice, letrozole 10 mg/kg oral, Table 2 study, mean with SEM",5180 ng/mL
same,"liver levels, wild-type vs Oatp1a/1b^(−/−) mice",[1],higher levels
same,liver concentrations in OATP1B1^(tg) or OATP1B3^(tg) mice,[1],partially restored

# From article PMC11948302, “OATP1B-type Transport Function Is a Determinant of Aromatase Inhibitor–Associated Arthralgia Susceptibility” (Cancer Research Communications, 2025)
